# Measurements reported in PMC11904993, “Humanized Candida and NanoBiT Assays Expedite Discovery of Bdf1 Bromodomain Inhibitors With Antifungal Potential” (Advanced Science, 2025).
# Where “and” joins values, the source holds several entries; their conditions need not be identical. Equal values may be shown once. Read-outs that look alike come from different tables or passages of the source.
# Key:
# CgBdf1 BD1 [1] = experiment: Histone peptide array assay
# Description: (§1) The array was prepared as described in the manufacturer's instructions. […] The array was then washed three times with binding buffer. Anti‐GST antibody (GE Healthcare) was used for the detection of GST‐tagged bromodomains.
# CgBdf1 BD1 [2] = target: CgBdf1 BD1 (Candida glabrata, UniProt Q6FWV7); experiment: HTRF assay, inhibition of H4ac4 peptide binding; design: species or system C. glabrata
# CgBdf1 BD2 [3] = target: CgBdf1 BD2 (Candida glabrata, UniProt Q6FWV7); experiment: biochemical; format: binding, C. glabrata
# human Brd4 BD1 = human Brd4 BD1 (Homo sapiens, UniProt O60885); experiment: HTRF assay, inhibition of H4ac4 peptide binding; settings: for %HTRF Signal: Exp1-3
# [4] = test system: C. glabrata strains expressing WT and mutant Bdf1; experiment: Growth inhibition in liquid media, C. glabrata lab strains; settings: for OD at 600 nm: Exp 1-3, Figure S9A; for EC50: Nakaseomyces glabratus, single experiments Exp1-3
# Description: Growth on Liquid Media with C. glabrata Lab Strains: Cells were grown at 30 °C in SC+M+C‐U medium (SC medium with 5 mM methionine, 0.25 mM cysteine, without uracil) to an OD600 of 0.5–0.8. […] Plates were incubated at 30 °C and OD600 was measured using a Multiskan FC Microplate Photometer (Thermo Fisher).
# human Brd4 BD2 = target: T1, human Brd4 BD2 (Homo sapiens, UniProt O60885); experiment: HTRF assay, inhibition of H4ac4 peptide binding; settings: for %HTRF Signal: Exp1-3
# T1 construct: GST‐tagged BD2 (residues 349–460) from human Brd4 (UniProt ID O60885); purchased Reaction Biology Corp
# CgBdf1 BD2 [5] = experiment: Histone peptide array assay
# Description: as §1
# [6] = Fig 1D/2A original data, single experiments Exp1-3
# Chain of CgBdf1 BD2 (Candida glabrata, UniProt Q6FWV7) (Q6FWV7 entry or part of it): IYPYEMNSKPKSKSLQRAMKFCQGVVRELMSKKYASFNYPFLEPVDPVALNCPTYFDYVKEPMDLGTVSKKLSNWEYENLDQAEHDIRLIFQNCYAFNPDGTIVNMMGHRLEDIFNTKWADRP
# Chain of CgBdf1 BD1 (Candida glabrata, UniProt Q6FWV7) (Q6FWV7 entry or part of it): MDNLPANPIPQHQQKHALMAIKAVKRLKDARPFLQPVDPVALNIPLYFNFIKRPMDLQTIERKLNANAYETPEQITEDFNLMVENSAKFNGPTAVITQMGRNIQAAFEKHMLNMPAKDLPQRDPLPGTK
structure (smiles),measurement,setting,value
Cn1nccc1C(=O)NCc1ccc(-c2nc(-c3cccs3)no2)s1 [Compound 63],"Raw data, WT","CgBdf1 BD1 [1]; peptide array signal, CgBdf1 BD1 WT, first replicate column",0.003151
same,"Normalized (0 to 100%), WT","CgBdf1 BD1 [1]; peptide array signal, CgBdf1 BD1 WT, mean of the two raw values",1.81%
same,"Raw data, WT","CgBdf1 BD1 [1]; peptide array signal, CgBdf1 BD1 WT, second replicate column",0.03308
same,"Raw data, YF mutant","CgBdf1 BD1 [1]; peptide array signal, CgBdf1 BD1 YF mutant, first replicate column",0.001234
same,"Normalized (0 to 100%), YF mutant","CgBdf1 BD1 [1]; peptide array signal, CgBdf1 BD1 YF mutant, mean of the two raw values",0.216%
same,"Raw data, YF mutant","CgBdf1 BD1 [1]; peptide array signal, CgBdf1 BD1 YF mutant, second replicate column",0.003085
same,%HTRF Signal,CgBdf1 BD1 [2],92.96% and 94.93% and 114.99%
same,%HTRF Signal,"CgBdf1 BD1 [2]; CgBD1, compound 2.10 nM, Exp1-3",89.22% and 91.15% and 92.46%
same,%HTRF Signal,"CgBdf1 BD1 [2]; CgBD1, compound 13.11 nM, Exp1-3",137.24% and 96.18% and 98.59%
same,%HTRF Signal,"CgBdf1 BD1 [2]; CgBD1, compound 32.77 nM, Exp1-3",89.47% and 88.02% and 93.78%
same,%HTRF Signal,"CgBdf1 BD1 [2]; CgBD1, compound 81.92 nM, Exp1-3",87.12% and 79.28% and 89.90%
same,%HTRF Signal,"CgBdf1 BD1 [2]; CgBD1, compound 204.8 nM, Exp1-3",79.54% and 70.30% and 76.77%
same,%HTRF Signal,"CgBdf1 BD1 [2]; CgBD1, compound 512 nM, Exp1-3",60.42% and 54.51% and 55.50%
same,%HTRF Signal,"CgBdf1 BD1 [2]; CgBD1, compound 1280 nM, Exp1-3",88.32% and 78.12% and 81.58%
same,%HTRF Signal,"CgBdf1 BD1 [2]; CgBD1, compound 3200 nM, Exp1-3",43.73% and 36.43% and 36.08%
same,%HTRF Signal,"CgBdf1 BD1 [2]; CgBD1, compound 8000 nM, Exp1-3",32.25% and 38.09% and 29.97%
same,%HTRF Signal,"CgBdf1 BD1 [2]; CgBD1, compound 20000 nM, Exp1-3",23.85% and 25.61% and 19.76%
same,IC50,"CgBdf1 BD1 [2]; CgBD1, individual experiments Exp1-3, Table S4, read-out: IC50",0.62 µM and 0.71 µM and 0.5 µM
same,pIC50 CgBD1,CgBdf1 BD1 [2]; [6],6.209 and 6.147 and 6.298
same,IC50,"CgBdf1 BD1 [2]; Table S4, means ± SD, n=3, read-out: IC50 CgBD1",0.61 ± 0.1 µM
same,%HTRF Signal,CgBdf1 BD2 [3],91.88% and 95.70% and 106.64%
same,pIC50 CgBD2,CgBdf1 BD2 [3],≤ 4
same,%HTRF Signal,"CgBdf1 BD2 [3]; CgBD2, compound 2.10 nM, Exp1-3",86.71% and 109.56% and 96.63%
same,%HTRF Signal,"CgBdf1 BD2 [3]; CgBD2, compound 13.11 nM, Exp1-3",107.12% and 98.52% and 93.70%
same,%HTRF Signal,"CgBdf1 BD2 [3]; CgBD2, compound 32.77 nM, Exp1-3",87.98% and 111.39% and 100.52%
same,%HTRF Signal,"CgBdf1 BD2 [3]; CgBD2, compound 81.92 nM, Exp1-3",93.69% and 107.27% and 99.37%
same,%HTRF Signal,"CgBdf1 BD2 [3]; CgBD2, compound 204.8 nM, Exp1-3",87.47% and 98.47% and 101.59%
same,%HTRF Signal,"CgBdf1 BD2 [3]; CgBD2, compound 512 nM, Exp1-3",94.84% and 95.89% and 102.41%
same,%HTRF Signal,"CgBdf1 BD2 [3]; CgBD2, compound 1280 nM, Exp1-3",108.51% and 97.41% and 103.91%
same,%HTRF Signal,"CgBdf1 BD2 [3]; CgBD2, compound 3200 nM, Exp1-3",96.71% and 89.90% and 106.57%
same,%HTRF Signal,"CgBdf1 BD2 [3]; CgBD2, compound 8000 nM, Exp1-3",101.27% and 103.49% and 103.29%
same,%HTRF Signal,"CgBdf1 BD2 [3]; CgBD2, compound 20000 nM, Exp1-3",98.71% and 85.34% and 94.42%
same,IC50,"CgBdf1 BD2 [3]; CgBD2, individual experiments Exp1-3, Table S4, read-out: IC50",> 20 µM
same,pIC50 hBrd4 BD1,human Brd4 BD1; [6],4.548 and 4.767 and 4.490
same,IC50,"human Brd4 BD1; Table S3, estimate, preliminary single-replicate HTRF assay, read-out: IC50 Brd4 BD1",> 20 µM
same,IC50,"human Brd4 BD1; Table S4, means ± SD, n=3, read-out: IC50 hBrd4 BD1",25.9 ± 7.9 µM
same,%HTRF Signal,"human Brd4 BD1; hBrd4 BD1, compound 2.10 nM",98.36% and 97.75% and 98.52%
same,%HTRF Signal,"human Brd4 BD1; hBrd4 BD1, compound 5.24 nM",96.44% and 101.52% and 99.57%
same,%HTRF Signal,"human Brd4 BD1; hBrd4 BD1, compound 13.11 nM",96.19% and 93.70% and 100.56%
same,%HTRF Signal,"human Brd4 BD1; hBrd4 BD1, compound 32.77 nM",100.99% and 95.89% and 96.28%
same,%HTRF Signal,"human Brd4 BD1; hBrd4 BD1, compound 81.92 nM",95.84% and 103.64% and 102.41%
same,%HTRF Signal,"human Brd4 BD1; hBrd4 BD1, compound 204.8 nM",99.83% and 98.50% and 97.67%
same,%HTRF Signal,"human Brd4 BD1; hBrd4 BD1, compound 512 nM",96.60% and 93.56% and 96.36%
same,%HTRF Signal,"human Brd4 BD1; hBrd4 BD1, compound 1280 nM",82.33% and 98.72% and 104.43%
same,%HTRF Signal,"human Brd4 BD1; hBrd4 BD1, compound 3200 nM",94.57% and 92.75% and 93.44%
same,%HTRF Signal,"human Brd4 BD1; hBrd4 BD1, compound 8000 nM",83.80% and 81.87% and 89.53%
same,%HTRF Signal,"human Brd4 BD1; hBrd4 BD1, compound 20000 nM",44.73% and 68.85% and 53.13%
same,IC50,"human Brd4 BD1; hBrd4 BD1, individual experiments Exp1-3, Table S4, read-out: IC50",17.1 µM and 32.4 µM and 28.3 µM
same,OD at 600 nm,[4]; WT BDF1 strain,0.4973 and 0.4763 and 0.4793
same,OD at 600 nm,[4]; bdf1-bd1Δ strain,0.2357 and 0.2187 and 0.2437
same,OD at 600 nm,[4]; bdf1-bd2Δ strain,0.1390 and 0.1480 and 0.1420
same,%HTRF Signal,"human Brd4 BD2; hBrd4 BD2, compound 2.10 nM",99.18% and 94.17% and 90.64%
same,%HTRF Signal,"human Brd4 BD2; hBrd4 BD2, compound 5.24 nM",99.39% and 99.07% and 97.43%
same,%HTRF Signal,"human Brd4 BD2; hBrd4 BD2, compound 13.11 nM",98.29% and 101.48% and 93.41%
same,%HTRF Signal,"human Brd4 BD2; hBrd4 BD2, compound 32.77 nM",93.01% and 99.51% and 101.32%
same,%HTRF Signal,"human Brd4 BD2; hBrd4 BD2, compound 81.92 nM",102.00% and 98.93% and 106.04%
same,%HTRF Signal,"human Brd4 BD2; hBrd4 BD2, compound 204.8 nM",100.03% and 105.21% and 104.21%
same,%HTRF Signal,"human Brd4 BD2; hBrd4 BD2, compound 512 nM",98.01% and 98.41% and 97.72%
same,%HTRF Signal,"human Brd4 BD2; hBrd4 BD2, compound 1280 nM",99.07% and 96.81% and 100.81%
same,%HTRF Signal,"human Brd4 BD2; hBrd4 BD2, compound 3200 nM",102.84% and 98.87% and 104.55%
same,%HTRF Signal,"human Brd4 BD2; hBrd4 BD2, compound 8000 nM",108.22% and 84.57% and 107.59%
same,%HTRF Signal,"human Brd4 BD2; hBrd4 BD2, compound 20000 nM",102.02% and 76.14% and 105.57%
same,IC50,"human Brd4 BD2; hBrd4 BD2, individual experiments Exp1-3, Table S4, read-out: IC50",> 20 µM (2×) and 29.2 µM
same,"Raw data, WT","CgBdf1 BD2 [5]; peptide array signal, CgBdf1 BD2 WT, first replicate column",0.004055
same,"Normalized (0 to 100%), WT","CgBdf1 BD2 [5]; peptide array signal, CgBdf1 BD2 WT, mean of the two raw values",0.593%
same,"Raw data, WT","CgBdf1 BD2 [5]; peptide array signal, CgBdf1 BD2 WT, second replicate column",0.007798
same,"Raw data, YF mutant","CgBdf1 BD2 [5]; peptide array signal, CgBdf1 BD2 YF mutant, first replicate column",0.009509
same,"Normalized (0 to 100%), YF mutant","CgBdf1 BD2 [5]; peptide array signal, CgBdf1 BD2 YF mutant, mean of the two raw values",0.675%
same,"Raw data, YF mutant","CgBdf1 BD2 [5]; peptide array signal, CgBdf1 BD2 YF mutant, second replicate column",0.003988
COc1ccc(CNc2nc(-c3ccccc3)nnc2C)cc1 [Compound 10],"Normalized (0 to 100%), WT, Average","CgBdf1 BD1 [1]; CgBdf1 BD1 WT, normalized peptide array signal",2.21%
same,"Raw data, WT, Left","CgBdf1 BD1 [1]; CgBdf1 BD1 WT, peptide array signal, left replicate",0.006616
same,"Raw data, WT, Rigt","CgBdf1 BD1 [1]; CgBdf1 BD1 WT, peptide array signal, right replicate",0.03749
same,"Normalized (0 to 100%), YF mutant, Average","CgBdf1 BD1 [1]; CgBdf1 BD1 YF mutant, normalized peptide array signal",0.293%
same,"Raw data, YF mutant, Left","CgBdf1 BD1 [1]; CgBdf1 BD1 YF mutant, peptide array signal, left replicate",0.003085
same,"Raw data, YF mutant, Right","CgBdf1 BD1 [1]; CgBdf1 BD1 YF mutant, peptide array signal, right replicate",0.002776
same,IC50,"CgBdf1 BD1 [2]; Fig 2C original data, analogs of 24, single experiments Exp1-3, read-out: pIC50 CgBD1 (converted)",2.28 µM and 2.58 µM and 1.86 µM
same,IC50,"CgBdf1 BD1 [2]; Table S3, estimate, preliminary single-replicate HTRF assay, read-out: IC50 CgBdf1 BD1",5 µM
same,IC50,"CgBdf1 BD2 [3]; Fig 2C original data, analogs of 24, single experiments Exp1-3, read-out: pIC50 CgBD2 (converted)",> 100 µM
same,IC50,"CgBdf1 BD2 [3]; Table S3, estimate, preliminary single-replicate HTRF assay, read-out: IC50 CgBdf1 BD2",> 20 µM
same,IC50,human Brd4 BD1,> 20 µM
same,EC50,"[4]; read-out: pEC50 (WT BDF1), Fig 2D (converted), WT C. glabrata",180 µM
same,EC50,"[4]; read-out: pEC50 growth inhibition, Fig 2C (converted), strain BD1 Y-F",149 µM
same,IC50,"human Brd4 BD2; Table S3, estimate, preliminary single-replicate HTRF assay, read-out: IC50 Brd4 BD2",> 20 µM
same,"Normalized (0 to 100%), WT, Average","CgBdf1 BD2 [5]; CgBdf1 BD2 WT, normalized peptide array signal",0.608%
same,"Raw data, WT, Left","CgBdf1 BD2 [5]; CgBdf1 BD2 WT, peptide array signal, left replicate",0.004055
same,"Raw data, WT, Rigt","CgBdf1 BD2 [5]; CgBdf1 BD2 WT, peptide array signal, right replicate",0.00811
same,"Normalized (0 to 100%), YF mutant, Average","CgBdf1 BD2 [5]; CgBdf1 BD2 YF mutant, normalized peptide array signal",0.859%
same,"Raw data, YF mutant, Left","CgBdf1 BD2 [5]; CgBdf1 BD2 YF mutant, peptide array signal, left replicate",0.01319
same,"Raw data, YF mutant, Right","CgBdf1 BD2 [5]; CgBdf1 BD2 YF mutant, peptide array signal, right replicate",0.003988
